According to US8026257B2 (Bristol-Myers Squibb Company, priority 2007, dated 2011):
Counter-ions that a name gives are not always drawn. Like-named read-outs stand apart in the source and are kept apart here.

Columns and labels:
[1] = target: hSERT (Homo sapiens, UniProt P31645); experiment: SERT radioligand binding assay ([125I]RTI-55, HEK-hSERT membranes); details: HEK-293 hSERT membranes, 260 pM [125I]RTI-55, 1 hour at room temperature
Experimental: (§1) NK-1 Binding assay. Crude membrane suspensions were prepared for the NK1 and SERT radioligand binding assays from U373 cells or recombinant HEK-293 cells expressing hSERT, respectively. Cells were harvested from T-175 flasks as follows. The medium is removed from the flasks and the cells rinsed with HBSS without Ca and without Mg. The cells are then incubated for 5-10 minutes in 10 mM Tris-Cl, pH 7.5, 5 mM EDTA before the cells are lifted with a combination of pipetting and scraping, as needed. To prepare membranes, the cell suspension is collected into centrifuge bottles and homogenized for 30 seconds with a Polytron homogenizer. The suspension is centrifuged for 30 min@32,000×g, 4° C., then the supernatant is decanted and the pellet resuspended and homogenized in 50 mM Tris-Cl, pH 7.5, 1 mM EDTA for 10 seconds. The suspension is then centrifuged again for 30 min@32,000×g, 4° C. The supernatant is decanted and the pellet resuspended in 50 mM Tris-Cl, pH 7.5, 1 mM EDTA and briefly homogenized. A Bradford assay (Bio-rad) is performed and the membrane preparation diluted to 2 mg/ml with 50 mM Tris-Cl, pH 7.5, 1 mM EDTA. Aliquots are prepared, and then frozen and stored at −80° C.
SERT radioligand binding assay. Compounds are dissolved in 100% DMSO at a concentration 100× the desired highest assay concentration, serially diluted 1:3 in 100% DMSO, and 0.4 ul/well of each solution is dispensed to a Nunc polypropylene, round bottom, 384 well plate. 100% inhibition is defined with 0.4 ul/well of 1 mM fluoxetine (Sigma F-132) dissolved in DMSO. 20 ul/well of a 2× HEK-hSERT membrane preparation (15 ug/ml in 50 mM Tris-Cl, pH 7.5, 120 mM NaCl, 5mM KCl) and 20 ul/well of a 2× radioligand solution (520 pM [^125I]RTI-55 (Perkin-Elmer NEX-272) in 50 mM Tris-Cl, pH 7.5, 120 mM NaCl, 5mM KCl) are added to each well and the reaction incubated for 1 hour at room temperature. The contents of the assay plate are then transferred to a Millipore MultiscreenHTs GF/B filter plate which has been pretreated with 0.5% PEI for at least one hour. The plate is vacuum filtered and washed with 7 washes of 100 ul/well of 50 mM Tris-Cl, pH 7.5, 120 mM NaCl, 5 mM KCl chilled to 4° C. The filtration and washing is completed in less than 90 s. The plates are air-dried overnight, 12 ul/well of MicroScint scintillation fluid added, and the plates counted in a Trilux.
(§2) Data analysis. The raw data are normalized to percent inhibition using control wells defining 0% (DMSO only) and 100% (selective inhibitor) inhibition which are run on each plate. Each plate is run in triplicate, and the concentration response curve thus generated is fit using the four-parameter dose response equation, Y=Bottom+(Top-Bottom)/(1+10^((LogIC50−X)*HillSlope)) in order to determine the IC50 value for each compound. The radioligand concentration chosen for each assay corresponds to the Kd concentration determined through saturation binding analysis for each assay.

[2] = target: T1, NK-1 (Homo sapiens, UniProt P25103); experiment: NK1 radioligand binding assay ([125I]Substance P, U373 membranes); details: U373 cell membranes, 200 pM [125I]Substance P, 1 hour at room temperature
T1 construct: 30 ul/well of a 2×U373 membrane preparation
T1 sequence (P25103 whole entry): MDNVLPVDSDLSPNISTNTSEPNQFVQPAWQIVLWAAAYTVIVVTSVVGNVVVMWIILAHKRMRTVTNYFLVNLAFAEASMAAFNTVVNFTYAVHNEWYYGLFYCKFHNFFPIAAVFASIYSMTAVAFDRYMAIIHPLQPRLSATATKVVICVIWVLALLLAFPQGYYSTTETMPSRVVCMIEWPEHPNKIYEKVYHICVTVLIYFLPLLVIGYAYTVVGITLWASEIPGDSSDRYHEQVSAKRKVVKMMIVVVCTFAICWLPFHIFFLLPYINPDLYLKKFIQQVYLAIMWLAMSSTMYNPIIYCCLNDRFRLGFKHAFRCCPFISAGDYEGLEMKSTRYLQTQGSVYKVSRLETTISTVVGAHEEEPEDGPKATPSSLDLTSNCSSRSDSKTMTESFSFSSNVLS
Experimental: as §1
NK1 radioligand binding assay. Compounds are dissolved in 100% DMSO at a concentration 100× the desired highest assay concentration, serially diluted 1:3 in 100% DMSO, and 0.6 ul/well of each solution is dispensed to a Nunc polypropylene, round bottom, 384 well plate. 100% inhibition is defined with 0.6 ul/well of 1 mM L-733,060 (Sigma L-137) dissolved in DMSO. 30 ul/well of a 2×U373 membrane preparation (267 ug/ml in 100 mM Tris-Cl, pH 7.5, 6 mM MgCl2, 0.2% (v/v) Sigma mammalian protease inhibitor cocktail (Sigma P-8340), and 4 ug/ml chymostatin, Sigma C-7268) and 30 ul/well of a 2× radioligand solution (400 pM [^125I]Substance P (Perkin ElmerNEX-190) in 1% (w/v) BSA (Sigma A-2153), 0.1 mg/ml bacitracin, Sigma B-0125) are added to the well and the reaction incubated for 1 hour at room temperature. The contents of the assay plate are then transferred to a Millipore MultiscreenHTS GF/B filter plate which has been pretreated with 0.5% PEI for at least one hour. The plate is vacuum filtered and washed with 7 washes of 100 ul/well of 20 mM Tris-Cl, pH 7.5, 0.5% (w/v) BSA chilled to 4° C. The filtration and washing is completed in less than 90 s. The plates are air-dried overnight, 12 ul/well of MicroScint scintillation fluid added, and the plates counted in a Trilux.
as §2

Chain of hSERT (P31645 whole entry): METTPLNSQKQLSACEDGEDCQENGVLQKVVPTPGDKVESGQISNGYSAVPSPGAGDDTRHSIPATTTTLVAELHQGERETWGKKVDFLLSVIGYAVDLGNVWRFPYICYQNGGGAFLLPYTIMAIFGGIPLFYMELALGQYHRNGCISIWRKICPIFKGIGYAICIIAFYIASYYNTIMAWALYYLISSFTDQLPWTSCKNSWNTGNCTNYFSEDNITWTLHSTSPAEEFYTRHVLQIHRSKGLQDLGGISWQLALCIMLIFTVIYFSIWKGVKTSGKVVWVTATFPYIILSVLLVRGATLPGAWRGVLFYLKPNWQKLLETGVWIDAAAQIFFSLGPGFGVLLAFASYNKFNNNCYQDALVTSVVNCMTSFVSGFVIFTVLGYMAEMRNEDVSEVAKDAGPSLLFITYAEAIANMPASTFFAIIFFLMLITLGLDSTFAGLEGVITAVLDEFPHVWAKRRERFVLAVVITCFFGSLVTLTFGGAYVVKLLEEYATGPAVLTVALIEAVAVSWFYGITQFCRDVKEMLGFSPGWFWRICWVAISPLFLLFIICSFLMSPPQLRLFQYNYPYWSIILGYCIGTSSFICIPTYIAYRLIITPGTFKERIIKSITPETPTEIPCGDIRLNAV

Structure (SMILES) | IC50 ([1]; read-out: SERT IC50) [nM] | IC50 [2] [nM] | IC50 ([1]; SERT IC50 (nM)) [nM]
CC(OCC1(c2ccc(F)cc2)CCN(C)CC1)c1cc(C(F)(F)F)cc2[nH]ccc12 (racemic) [Example 128, (±)-4-(1-((4-(4-fluorophenyl)-1-methylpiperidin-4-yl)methoxy)ethyl)-6-(trifluoromethyl)-1H-indole] | 0.01 to 100 | 0.01 to 100 | 
CC(OCC1(c2ccc(F)cc2)CCNCC1)c1cc(C(F)(F)F)cc2c1CC(=O)N2 (racemic) [Example 129, (±)-4-(1-((4-(4-fluorophenyl)piperidin-4-yl)methoxy)ethyl)-6-(trifluoromethyl)indolin-2-one, TFA] | 0.01 to 100 | 100 to 300 | 
CC(OCC1(c2ccc(F)cc2)CCNCC1)c1cc(C(F)(F)F)cc2cn[nH]c12 (single isomer, unassigned) [Example 22, 7-(1-((4-(4-Fluorophenyl)piperidin-4-yl)methoxy)ethyl)-5-(trifluoromethyl)-1H-indazole] | 0.01 to 100 | 100 to 300 | 
CC(OCC1(c2ccc(F)cc2)CCN(C)CC1)c1cc(C(F)(F)F)cc2cn[nH]c12 (single isomer, unassigned) [Example 23, 7-(1-((4-(4-Fluorophenyl)-1-methylpiperidin-4-yl)methoxy)ethyl)-5-(trifluoromethyl)-1H-indazole] | 0.01 to 100 | 100 to 300 | 
CC(OCC1(c2ccc(F)cc2)CCNCC1)c1cc(C(F)(F)F)cc2cn[nH]c12 (single isomer, unassigned) [Example 24, 7-(1-((4-(4-Fluorophenyl)piperidin-4-yl)methoxy)ethyl)-5-(trifluoromethyl)-1H-indazole] | 0.01 to 100 | 0.01 to 100 | 
CC(OCC1(c2ccc(F)cc2)CCN(C)CC1)c1cc(C(F)(F)F)cc2cn[nH]c12 (single isomer, unassigned) [Example 25, 7-(1-((4-(4-Fluorophenyl)-1-methylpiperidin-4-yl)methoxy)ethyl)-5-(trifluoromethyl)-1H-indazole] | 0.01 to 100 | 0.01 to 100 | 
CC(OCC1(c2ccc(F)cc2)CCNCC1)c1cc(C(F)(F)F)cc2cnn(C)c12 (single isomer, unassigned) [Example 26, 7-(1-((4-(4-Fluorophenyl)piperidin-4-yl)methoxy)ethyl)-1-methyl-5-(trifluoromethyl)-1H-indazole] | 0.01 to 100 | 100 to 300 | 
CC(OCC1(c2ccc(F)cc2)CCN(C)CC1)c1cc(C(F)(F)F)cc2cnn(C)c12 (single isomer, unassigned) [Example 27, 7-(1-((4-(4-Fluorophenyl)-1-methylpiperidin-4-yl)methoxy)ethyl)-1-methyl-5-(trifluoromethyl)-1H-indazole] | 0.01 to 100 | 100 to 300 | 
CC(OCC1(c2ccc(F)cc2)CCNCC1)c1cc(C(F)(F)F)cc2cn(C)nc12 (single isomer, unassigned) [Example 28, 7-(1-((4-(4-Fluorophenyl)piperidin-4-yl)methoxy)ethyl)-2-methyl-5-(trifluoromethyl)-2H-indazole] | 100 to 300 | > 300 | 
CC(OCC1(c2ccc(F)cc2)CCN(C)CC1)c1cc(C(F)(F)F)cc2cn(C)nc12 (single isomer, unassigned) [Example 29, 7-(1-((4-(4-Fluorophenyl)-1-methylpiperidin-4-yl)methoxy)ethyl)-2-methyl-5-(trifluoromethyl)-2H-indazole] | 0.01 to 100 | > 300 | 
CC(OCC1(c2ccc(F)cc2)CCNCC1)c1cc(C(F)(F)F)cc2cnn(C)c12 (single isomer, unassigned) [Example 30, 7-(1-((4-(4-Fluorophenyl)piperidin-4-yl)methoxy)ethyl)-1-methyl-5-(trifluoromethyl)-1H-indazole] | 0.01 to 100 | 0.01 to 100 | 
CC(OCC1(c2ccc(F)cc2)CCN(C)CC1)c1cc(C(F)(F)F)cc2cnn(C)c12 (single isomer, unassigned) [Example 31, 7-(1-((4-(4-Fluorophenyl)-1-methylpiperidin-4-yl)methoxy)ethyl)-1-methyl-5-(trifluoromethyl)-1H-indazole] | 0.01 to 100 | 0.01 to 100 | 
CC(OCC1(c2ccc(F)cc2)CCNCC1)c1cc(C(F)(F)F)cc2cn(C)nc12 (single isomer, unassigned) [Example 32, 7-(1-((4-(4-Fluorophenyl)piperidin-4-yl)methoxy)ethyl)-2-methyl-5-(trifluoromethyl)-2H-indazole] | 0.01 to 100 | 0.01 to 100 | 
CC(OCC1(c2ccc(F)cc2)CCN(C)CC1)c1cc(C(F)(F)F)cc2cn(C)nc12 (single isomer, unassigned) [Example 33, 7-(1-((4-(4-Fluorophenyl)-1-methylpiperidin-4-yl)methoxy)ethyl)-2-methyl-5-(trifluoromethyl)-2H-indazole] | 0.01 to 100 | 0.01 to 100 | 
CC(OCC1(c2ccc(F)cc2)CCN(C)CC1)c1cc(C2CC2)cc2c(Cl)n[nH]c12 (single isomer, unassigned) [Example 54] |  | 0.01 to 100 | 0.01 to 100
CC(OCC1(c2ccc(F)cc2)CCN(C)CC1)c1cc(C(F)(F)F)cc2ccn(C)c12 (single isomer, unassigned) [Example 74, 7-(1-((4-(4-Fluorophenyl)-1-methylpiperidin-4-yl)methoxy)ethyl)-1-methyl-5-(trifluoromethyl)-1H-indole] | 100 to 300 | > 300 | 
CC(OCC1(c2ccc(F)cc2)CCN(C)CC1)c1cc(C(F)(F)F)cc2ccn(C)c12 (single isomer, unassigned) [Example 75, 7-(1-((4-(4-Fluorophenyl)-1-methylpiperidin-4-yl)methoxy)ethyl)-1-methyl-5-(trifluoromethyl)-1H-indole] | 0.01 to 100 | 0.01 to 100 | 
CC(OCC1(c2ccccc2)CCN(C)CC1)c1cc(Br)cc2c1ncn2CC1CC1 (single isomer, unassigned) [Example 130] | 0.01 to 100 | > 300 | 
CC(OCC1(c2ccccc2)CCN(C)CC1)c1cc(Br)cc2c1ncn2CC1CC1 (single isomer, unassigned) [Example 131] | 0.01 to 100 | 0.01 to 100 | 
CC(OCC1(c2ccc(F)cc2)CCN(C)CC1)c1cc(C(F)(F)F)cc2c1ncn2CC1CC1 (single isomer, unassigned) [Example 133] | 0.01 to 100 | > 300 | 
CC(OCC1(c2ccc(F)cc2)CCN(C)CC1)c1cc(C(F)(F)F)cc2c1ncn2CC1CC1 (single isomer, unassigned) [Example 134] | 0.01 to 100 | 0.01 to 100 | 
CCn1cnc2c(C(C)OCC3(c4ccc(F)cc4)CCN(C)CC3)cc(C(F)(F)F)cc21 (single isomer, unassigned) [Example 135] | 0.01 to 100 | > 300 | 
CCn1cnc2c(C(C)OCC3(c4ccc(F)cc4)CCN(C)CC3)cc(C(F)(F)F)cc21 (single isomer, unassigned) [Example 136] | 0.01 to 100 | 0.01 to 100 | 
